Data from ChEMBL document CHEMBL5674860, “Optimized Dual-Glo Assay to identify co-culture-induced drug vulnerabilities in 3D CRC models” (2024).

Legend:
Type in all cases: functional, Homo sapiens
Design in all cases: dose or concentration left out as unconfirmed
[1] = system: Colon cancer organoid; assay: Optimized Dual-Glo assay to identify co-culture induced drug vulnerabilities using donated chemical probes and chemogenomics kinase set in O14 CRC organoid and F14 CAF mono and co-culture. […] Cell viability is reported both mono and co-culture models.
[2] = system: Colon cancer organoid; assay: Optimized Dual-Glo assay to identify co-culture induced drug vulnerabilities using donated chemical probes and chemogenomics kinase set in O20 CRC organoid and F20 CAF mono and co-culture. […] Cell viability is reported both mono and co-culture models.
[3] = system: Colon cancer organoid; assay: Optimized Dual-Glo assay to identify co-culture induced drug vulnerabilities using donated chemical probes and chemogenomics kinase set in O06 CRC organoid and F06 CAF mono and co-culture. […] Cell viability is reported both mono and co-culture models.
[4] = Culture type Co-Culture, Transduced with Lucferase2-P2A-EGFP lentivirus
[5] = Culture type Co-Culture, Transduced with Renilla-dsRed lentivirus
[6] = Culture type Mono-Culture, Transduced with Lucferase2-P2A-EGFP lentivirus
[7] = Culture type Mono-Culture, Transduced with Renilla-dsRed lentivirus

Row | SMILES | Cell Viability [1, 4] [%] | Cell Viability [1, 5] [%] | Cell Viability [1, 6] [%] | Cell Viability [1, 7] [%] | Cell Viability [2, 4] [%] | Cell Viability [2, 5] [%] | Cell Viability [2, 6] [%] | Cell Viability [2, 7] [%] | Cell Viability [3, 4] [%] | Cell Viability [3, 5] [%] | Cell Viability [3, 6] [%] | Cell Viability [3, 7] [%]
1 | COc1nc2ccc([C@@](O)(c3ccccc3)C3CCN(C(C)=O)CC3)cc2c(Cl)c1Cc1ccc(-n2cccn2)cc1 [JNJ-54119936] | 91.6435 | 104.692 | 80.3234 | 104.355 | 65.101 | 118.395 | 94.7218 | 120.218 | 98.9754 | 75.6952 | 103.766 | 113.997
2 | Nc1nc(NCc2ccccc2)nc(-c2ccccc2CO)n1 [Ogerin] | 77.8704 | 129.106 | 105.546 | 105.714 | 80.9307 | 98.0569 | 82.507 | 92.5232 | 100.001 | 107.856 | 82.0596 | 96.3715
3 | COc1cc(Nc2ncc3c(n2)-c2ccc(Cl)cc2C(c2c(F)cccc2OC)=NC3)ccc1C(=O)O [ALISERTIB] | 16.1373 | 168.728 | 26.2121 | 103.392 | 6.089 | 322.747 | 10.9419 | 116.531 | 20.0499 | 286.415 | 8.923 | 120.563
4 | C=CC(=O)Nc1ccc2[nH]c(=O)n(C3CCN(C(=O)c4ccc(-c5nc6cc[nH]c(=O)c6cc5-c5ccccc5)cc4)CC3)c2c1 | 111.176 | 112.94 | 102.423 | 83.7994 | 101.159 | 80.5582 | 103.07 | 78.5683 | 100.634 | 129.997 | 117.336 | 96.7859
5 | O=C(Nc1cnc(Oc2ccc(F)cc2)nc1)N1CCc2ncccc2[C@@H]1c1ccc(F)cc1 [BAY-899] | 76.8335 | 114.239 | 91.8718 | 105.629 | 151.718 | 104.61 | 76.6403 | 85.9791 | 92.2798 | 100.101 | 137.923 | 100.535
6 | CC1=C(C)C(=O)C(C(C)(C)CC(=O)N(CCCCSC[C@H]2O[C@@H](n3cnc4c(N)ncnc43)[C@H](O)[C@@H]2O)Cc2cccc(-c3ccc(Cl)cc3)c2)=C(C)C1=O | 78.0162 | 155.416 | 78.4613 | 102.407 | 99.381 | 114.813 | 107.414 | 99.5191 | 117.447 | 138.552 | 64.6918 | 115.82
7 | Cc1cc(C)cc([C@@H]2c3cc(C)ccc3NC(=O)CN2C(=O)c2ccc(Br)s2)c1 | 88.8372 | 581.73 | 126.733 | 467.801 | 135.921 | 541.943 | 109.076 | 515.86 | 107.168 | 464.523 | 138.593 | 545.831
8 | COc1ccc2c(c1)O[C@H](c1ccc(OC)c(OC)c1)C[C@@H]2NC(=O)C1(c2ccc3c(c2)OC(F)(F)O3)CC1 [A-1596584] | 97.6687 | 114.369 | 74.3649 | 92.2647 | 72.8626 | 142.746 | 90.2448 | 98.4012 | 86.7173 | 88.6658 | 66.4869 | 108.119
9 | Cl.Cl.NC1(c2ccc(-c3nc4ccn5c(=O)[nH]nc5c4cc3-c3ccccc3)cc2)CCC1 | 42.2425 | 103.472 | 90.3868 | 88.3443 | 44.0229 | 145.22 | 34.39 | 114.515 | 52.26 | 91.614 | 79.8603 | 69.8373
10 | Cn1cnc2c(F)c(Nc3ccc(Br)cc3Cl)c(C(=O)NOCCO)cc21 [SELUMETINIB] | 41.0506 | 90.7653 | 35.0637 | 76.2393 | 54.0546 | 152.417 | 80.7355 | 77.3788 | 107.697 | 90.3962 | 52.8036 | 90.0191
11 | CCN(CC)S(=O)(=O)Nc1cccc(-c2ccc3c(NC(=O)C4CC4)n[nH]c3c2)c1 | 132.967 | 105.386 | 144.3 | 103.503 | 76.1767 | 136.148 | 110.502 | 120.639 | 95.7035 | 91.2372 | 90.915 | 111.432
12 | C[C@@H]1CC(=O)Nc2cccc(-c3ccc4c(c3)c(-c3cnn(C)c3)nn4C)c2N1 | 64.6948 | 192.573 | 92.2277 | 159.466 | 69.0231 | 148.573 | 48.9735 | 106.497 | 96.7982 | 166.358 | 47.1538 | 205.908
13 | O=C(O)[C@@H]1[C@@H](Cn2nnc3ccccc3c2=O)CC[C@H]1C(=O)c1ccc(OCCC2CCOCC2)cc1 [BAY-694] | 106.85 | 112.908 | 118.458 | 100.512 | 92.0939 | 91.7477 | 167.035 | 108.76 | 117.739 | 144.793 | 97.4704 | 83.1858
14 | COc1cc(N(C)c2ccnc3ccc(C(F)(F)F)cc23)cc(OC)c1OC | 114.205 | 95.5273 | 120.439 | 84.9016 | 76.7382 | 110.267 | 123.073 | 118.477 | 161.309 | 161.036 | 102.201 | 116.943
15 | COc1cc(OC)cc(-c2noc(N3CCN(C)C4(CCN(c5ccnc(C)c5)CC4)C3)n2)c1 | 84.0267 | 119.648 | 90.6911 | 98.8129 | 136.007 | 146.282 | 103.16 | 78.5515 | 121.179 | 136.172 | 96.7414 | 97.7605
16 | Cc1nc(N2CC[C@H](O)C2)ncc1-c1cc(C(F)(F)F)cc2[nH]ncc12 | 63.6905 | 138.157 | 56.4353 | 87.4633 | 47.2711 | 153.575 | 55.4223 | 100.169 | 111.861 | 161.788 | 77.8362 | 94.0965
17 | C=CC(=O)Nc1cccc(C(=O)Nc2ccc(Nc3cc(-c4[nH]c(SC)nc4C)ccn3)cc2)c1 | 92.8618 | 104.149 | 127.049 | 88.1867 | 175.75 | 71.728 | 133.783 | 92.5554 | 87.3077 | 89.5907 | 92.9694 | 99.3546
18 | O=C(NC[C@H](O)CN1CCc2ccccc2C1)c1ccnc(NC2CCC2)c1 | 29.3409 | 134.373 | 40.919 | 88.6314 | 42.8317 | 143.569 | 53.6752 | 63.4646 | 33.1368 | 110.399 | 67.3977 | 84.1228
